Measurements: patent US20260365653A1, “IRREVERSIBLE MUTEGFR INHIBITORS” (Bayer Aktiengesellschaft, priority 2022, published 2026)

Experiments:
BA/F3 (insSVD) cells = experiment: Ba/F3-EGFR-insSVD cell survival assay (Cell Titer-Glo); assay type: cell-based; conditions: Table 3a, cell survival, Cell Titer-Glo, with 10 ng/ml EGF, without IL-3
Description: Cellular Data Description (WT, insSVD, insSVD T790M) 293T cells from ATCC were transfected with pBABEpuro expression constructs for WT EGFR or EGFR-insSVD, or EGFR-insSVD T790M, and pCL-Eco packaging vector using Fugene-6 transfection reagent from Promega. Plates were incubated at 37° C. for 48 h. Retrovirus was harvested by filtering the media supernatant through a 0.45 μm filter.
Ba/F3 cells purchased from DSMZ were grown in RPMI+10% FBS+10 ng/ml IL-3 and infected with filtered retroviral supernatant at a 1:2 dilution. Polybrene was added to a concentration of 8 μg/mL, plates were spun for 90 min, and incubated for 16 h at 37° C. 2 μg/mL puromycin was added to the infected cells 24 h after infection and cells were continually grown in the presence of puromycin and 10 ng/ml IL-3. Following stably expressing Ba/F3 cell lines were generated: Ba/F3-EGFR-WT, Ba/F3-EGFR-insSVD, Ba/F3-EGFR-insSVD T790M, (Ba/F3-vector-control).
For cell survival assays, Ba/F3 cells were grown to a density of 1-2 million cells per mL, spun down and resuspended in media without IL-3, and replated at a concentration of 200,000-500,000 cells per mL. The cells ectopically expressing WT EGFR, EGFR-insSVD, or EGFR-insSVD T790M were plated with 10 ng/ml Millipore Culture grade EGF. The cells ectopically expressing pBABEpuro empty vector were plated with 10 ng/mL IL-3.
2 days later, cells were plated in 50 µL in a 384 well plate at a concentration of 4000 cells per well for cells assayed in the absence of IL-3 and 2000 cells per well for cells assayed in the presence of IL-3. 100 nL of compound was added to each well using a 100 nL pin head, and plates were incubated at 37° C. for 48 h.
Cell viability was measured by adding 20 μL of Cell Titer-Glo Luminescent Cell Viability Reagent diluted 1:3 in PBS. Plates were sealed with Perkin Elmer Top-Seal, inverted several times to mix, and immediately centrifuged at 1000 rpm for 2 min. Plates were incubated in low light conditions for 8-10 min and luminescence was measured.

[1] = molecular target: T1, mutEGFR (D770_N771insSVD) (Homo sapiens, UniProt P00533, DUP768-770); experiment: Exon20-Mutant-EGFR (D770_N771insSVD) kinase assay (TR-FRET); assay type: biochemical; conditions: mutEGFR (D770_N771insSVD) kinase assay IC50, Table 2a; D770_N771insSVD; 2 mM ATP
T1 construct: GST-EGFR #3 (SVD between D770 and N771); made in house; host or cells: Sf9 insect cells (baculovirus)
T1 sequence (P00533 with tags, fused parts or gaps DUP768-770): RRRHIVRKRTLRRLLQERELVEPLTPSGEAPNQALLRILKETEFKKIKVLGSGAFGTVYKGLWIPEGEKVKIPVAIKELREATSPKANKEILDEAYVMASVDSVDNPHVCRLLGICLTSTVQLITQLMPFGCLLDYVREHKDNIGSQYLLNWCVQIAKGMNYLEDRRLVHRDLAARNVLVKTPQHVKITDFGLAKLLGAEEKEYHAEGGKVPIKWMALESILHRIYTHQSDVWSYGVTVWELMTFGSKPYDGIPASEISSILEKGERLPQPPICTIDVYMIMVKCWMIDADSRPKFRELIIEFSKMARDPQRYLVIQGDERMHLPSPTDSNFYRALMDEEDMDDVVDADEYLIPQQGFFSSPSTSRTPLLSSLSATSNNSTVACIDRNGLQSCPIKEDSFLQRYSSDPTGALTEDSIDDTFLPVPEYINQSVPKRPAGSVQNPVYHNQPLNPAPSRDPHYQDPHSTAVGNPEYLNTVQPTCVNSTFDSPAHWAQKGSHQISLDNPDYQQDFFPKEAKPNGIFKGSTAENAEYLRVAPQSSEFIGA

[2] = molecular target: T2, mutEGFR (D770_N771insNPG, T790) (Homo sapiens, UniProt P00533, INS770NPG/T790M); experiment: mutEGFR (D770_N771insNPG, T790) kinase assay; assay type: biochemical; conditions: Table 2a, D770_N771insNPG
T2 construct: exact insNPG construct not described; in-house EGFR proteins were N-terminal GST fusions from baculovirus/insect cells (borders R669-A1210 given only for WT, insSVD, insASV)
T2 sequence (P00533 with tags, fused parts or gaps INS770NPG/T790M limits assumed): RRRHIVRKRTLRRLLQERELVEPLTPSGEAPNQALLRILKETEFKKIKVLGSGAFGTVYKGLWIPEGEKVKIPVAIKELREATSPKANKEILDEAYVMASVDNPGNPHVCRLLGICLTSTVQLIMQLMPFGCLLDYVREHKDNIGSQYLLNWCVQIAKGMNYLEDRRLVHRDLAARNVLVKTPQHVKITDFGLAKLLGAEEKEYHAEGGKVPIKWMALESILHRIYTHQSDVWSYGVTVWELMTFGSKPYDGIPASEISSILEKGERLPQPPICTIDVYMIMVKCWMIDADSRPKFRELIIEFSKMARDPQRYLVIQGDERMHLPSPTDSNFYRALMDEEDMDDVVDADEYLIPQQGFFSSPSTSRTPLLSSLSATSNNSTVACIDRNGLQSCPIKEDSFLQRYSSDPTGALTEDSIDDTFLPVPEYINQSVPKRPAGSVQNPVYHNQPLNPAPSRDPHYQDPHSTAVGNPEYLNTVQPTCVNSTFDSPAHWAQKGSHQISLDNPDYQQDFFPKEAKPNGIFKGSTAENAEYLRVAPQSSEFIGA
Text: The different EGFR proteins used in the biochemical kinase activity inhibition assays were generated inhouse by expression in insect cells using Baculo Virus system and subsequent purification as described in the following paragraphs.
The cDNAs encoding the various protein sequences from human EGFR human (P00533) were optimized for expression in eukaryotic cells and synthesized by the GeneArt Technology at Life Technologies.

Row | SMILES | IC50 [1] [nM] | IC50 [2] [nM] | IC50 (BA/F3 (insSVD) cells; Mus musculus, BaF3, 48 h) [nM] | IC50 (BA/F3 (insSVD) cells; 48 h) [nM]
1 | CC(C)(C)OC(=O)N1CCCC1C#CC(=O)N1CCn2nc(-c3ccc(F)cc3)c(-c3ccncc3)c2C1 (racemic) [Example 87, tert-butyl(2RS)-2-(3-[2-(4-fluorophenyl)-3-(pyridin-4-yl)-6,7-dihydropyrazolo[1,5-a]pyrazin-5(4H)-yl]-3-oxoprop-1-yn-1-yl) pyrrolidine-1-carboxylate] | 53.1 | 82.5 | 1060 | 
2 | C=CC(=O)N1Cc2c(-c3ccncc3)c(-c3ccc(F)cc3)nn2C(C(N)=O)C1 (racemic) [Example 204, (7RS)-5-acryloyl-2-(4-fluorophenyl)-3-(pyridin-4-yl)-4,5,6,7-tetrahydropyrazolo[1,5-a]pyrazine-7-carboxamide] | 4.61 | 17.2 | 134 | 
3 | CNC/C=C/C(=O)N1CCn2nc(-c3ccc(F)cc3)c(-c3ccncc3)c2C1 [Example 80, (2E)-1-[2-(4-fluorophenyl)-3-(pyridin-4-yl)-6,7-dihydropyrazolo[1,5-a]pyrazin-5(4H)-yl]-4-(methylamino)but-2-en-1-one] | 19.4 |  | 1370 | 
4 | CN1CCN(C/C=C/C(=O)N2CCn3nc(-c4ccc(F)cc4)c(-c4ccncc4)c3C2)CC1 [Example 82, (2E)-1-[2-(4-fluorophenyl)-3-(pyridin-4-yl)-6,7-dihydropyrazolo[1,5-a]pyrazin-5(4H)-yl]-4-(4-methylpiperazin-1-yl) but-2-en-1-one] | 29.6 |  | 739 | 
5 | C=CC(=O)N1CCn2nc(-c3cccc(CO)c3)c(-c3ccncc3)c2C1 [Example 121, 1-{2-[3-(hydroxymethyl)phenyl]-3-(pyridin-4-yl)-6,7-dihydropyrazolo[1,5-a]pyrazin-5(4H)-yl}prop-2-en-1-one] | 1.88 |  | 213 | 
6 | C=CC(=O)N1CCn2nc(-c3cccc(C(F)(F)F)c3)c(-c3ccnc4[nH]cc(C)c34)c2C1 [Example 178, 1-(3-(3-methyl-1H-pyrrolo[2,3-b]pyridin-4-yl)-2-(3-(trifluoromethyl)phenyl)-6,7-dihydropyrazolo[1,5-a]pyrazin-5(4H)-yl) prop-2-en-1-one] | 207 |  | 58.6 | 
7 | C=CC(=O)N1CCn2nc(-c3ccc4cc(F)sc4c3)c(-c3ccnc4[nH]cc(C)c34)c2C1 [Example 181, 1-[2-(2-fluoro-1-benzothiophen-6-yl)-3-(3-methyl-1H-pyrrolo[2,3-b]pyridin-4-yl)-6,7-dihydropyrazolo[1,5-a]pyrazin-5(4H)-yl]prop-2-en-1-one] | 59.6 |  | 64.1 | 
8 | Cc1c[nH]c2nccc(-c3c(-c4cccc(C(F)(F)F)c4)nn4c3CN(C(=O)/C=C/CN(C)C)CC4)c12 [Example 185, (E)-4-(dimethylamino)-1-(3-(3-methyl-1H-pyrrolo[2,3-b]pyridin-4-yl)-2-(3-(trifluoromethyl)phenyl)-6,7-dihydropyrazolo[1,5-a]pyrazin-5(4H)-yl) but-2-en-1-one] | 233 |  | 68.8 | 
9 | Cc1c[nH]c2nccc(-c3c(-c4ccc5cc(F)sc5c4)nn4c3CN(C(=O)/C=C/CN(C)C)CC4)c12 [Example 187, (2E)-4-(dimethylamino)-1-[2-(2-fluoro-1-benzothiophen-6-yl)-3-(3-methyl-1H-pyrrolo[2,3-b]pyridin-4-yl)-6,7-dihydropyrazolo[1,5-a]pyrazin-5(4H)-yl]but-2-en-1-one] | 30 |  |  | 

More lines, in order of falling IC50 [1], values ahead:

Row | IC50 [1] [nM] | IC50 [2] [nM] | SMILES | IC50 (BA/F3 (insSVD) cells; Mus musculus, BaF3, 48 h) [nM] | IC50 (BA/F3 (insSVD) cells; 48 h) [nM]
10 | 1180 |  | C=CC(=O)N1C(C)c2c(-c3ccncc3)c(-c3ccc(Cl)cc3F)nn2C[C@H]1C (single isomer, unassigned; isomer 1) [Example 290] |  | 3430
11 | 166 |  | C=CC(=O)N1CCn2nc(-c3cccc(Cl)c3F)c(-c3ccnc4[nH]cc(C)c34)c2C1 [Example 176, 1-[2-(3-chloro-2-fluorophenyl)-3-(3-methyl-1H-pyrrolo[2,3-b]pyridin-4-yl)-6,7-dihydropyrazolo[1,5-a]pyrazin-5(4H)-yl]prop-2-en-1-one] | 62.7 | 
12 | 57.4 | 225 | CN(C)C/C=C/C(=O)N1Cc2c(-c3ccncc3)c(-c3ccc(F)cc3)nn2C(C(N)=O)C1 (racemic) [Example 202, (7RS)-5-[(2E)-4-(dimethylamino)but-2-enoyl]-2-(4-fluorophenyl)-3-(pyridin-4-yl)-4,5,6,7-tetrahydropyrazolo[1,5-a]pyrazine-7-carboxamide] | 9980 | 
13 | 9.27 | 15.8 | O=C(C#CC1CCCN1)N1CCn2nc(-c3ccc(F)cc3)c(-c3ccncc3)c2C1 (racemic) [Example 88, 1-[2-(4-fluorophenyl)-3-(pyridin-4-yl)-6,7-dihydropyrazolo[1,5-a]pyrazin-5(4H)-yl]-3-[(2RS)-pyrrolidin-2-yl]prop-2-yn-1-one] | 3790 | 
14 | 4.15 | 9.66 | CN(C)C/C=C/C(=O)N1Cc2c(-c3ccncc3)c(-c3ccc(F)cc3)nn2C(CC(N)=O)C1 (racemic) [Example 220, 2-[(7RS)-5-[(2E)-4-(dimethylamino)but-2-enoyl]-2-(4-fluorophenyl)-3-(pyridin-4-yl)-4,5,6,7-tetrahydropyrazolo[1,5-a]pyrazin-7-yl]acetamide] | 5880 | 
15 | 4.15 |  | CCNC/C=C/C(=O)N1CCn2nc(-c3ccc(F)cc3)c(-c3ccncc3)c2C1 [Example 81, (2E)-4-(ethylamino)-1-[2-(4-fluorophenyl)-3-(pyridin-4-yl)-6,7-dihydropyrazolo[1,5-a]pyrazin-5(4H)-yl]but-2-en-1-one] | 134 | 
16 | 3.69 | 15.3 | CNC(=O)CC1CN(C(=O)/C=C/CN(C)C)Cc2c(-c3ccncc3)c(-c3ccc(F)cc3)nn21 (racemic) [Example 221, 2-[(7RS)-5-[(2E)-4-(dimethylamino)but-2-enoyl]-2-(4-fluorophenyl)-3-(pyridin-4-yl)-4,5,6,7-tetrahydropyrazolo[1,5-a]pyrazin-7-yl]-N-methylacetamide] | 2510 | 
17 | 1.67 | 3.42 | CN(C)C/C=C/C(=O)N1Cc2c(-c3ccncc3)c(-c3ccc(F)cc3)nn2C(CO)C1 (racemic) [Example 201, rac-(R,E)-4-(dimethylamino)-1-(2-(4-fluorophenyl)-7-(hydroxymethyl)-3-(pyridin-4-yl)-6,7-dihydropyrazolo[1,5-a]pyrazin-5(4H)-yl) but-2-en-1-one] | 423 | 
18 | 1.12 |  | C=CC(=O)N1Cc2c(-c3ccncc3)c(-c3ccc(C(F)(F)F)cc3F)nn2C[C@H]1C [Example 125, 1-[(6R)-2-[2-fluoro-4-(trifluoromethyl)phenyl]-6-methyl-3-(pyridin-4-yl)-6,7-dihydropyrazolo[1,5-a]pyrazin-5(4H)-yl]prop-2-en-1-one] | 45.5 | 
19 | 1.11 |  | C=CC(=O)N1C(C)c2c(-c3ccncc3)c(-c3ccc(Cl)cc3F)nn2C[C@H]1C (single isomer, unassigned; isomer 2) [Example 291] |  | 53
20 | 0.715 | 1.21 | CN(C)C/C=C/C(=O)N1Cc2c(-c3ccncc3)c(-c3ccc(F)cc3)nn2C(CCO)C1 (racemic) [Example 219, rac-(R,E)-4-(dimethylamino)-1-(2-(4-fluorophenyl)-7-(2-hydroxyethyl)-3-(pyridin-4-yl)-6,7-dihydropyrazolo[1,5-a]pyrazin-5(4H)-yl) but-2-en-1-one] | 308 | 
21 | 0.38 |  | CN(C/C=C/C(=O)N1CCn2nc(-c3ccc(Cl)cc3)c(-c3ccncc3)c2C1)CCO [Example 170, (2E)-1-[2-(4-chlorophenyl)-3-(pyridin-4-yl)-6,7-dihydropyrazolo[1,5-a]pyrazin-5(4H)-yl]-4-[(2-hydroxyethyl)(methyl)amino]but-2-en-1-one] | 190 | 
